Patent US20250288584A1, “COMBINATIONS COMPRISING POSITIVE ALLOSTERIC MODULATORS OR ORTHOSTERIC AGONISTS OF METABOTROPIC GLUTAMATERGIC RECEPTOR SUBTYPE 2 AND THEIR USE” (JANSSEN PHARMACEUTICA NV, priority 2014, published 2025)
Where “and” joins values, the source holds several entries; their conditions need not be identical. Equal values may be shown once. Entries after “also recorded” stand apart in the source; their conditions may differ.

Key:
paroxysmal dystonia = conditions: dt^sz mutant hamster; cited from earlier work
corneal kindled seizures = test: Mouse corneal kindling model; type: in vivo, mice; conditions: Racine score 0-5
Description: After the mice reached a stable kindled state, the test compound or vehicle was administered and, at the previously determined TPE, each animal was given the electrical stimulus indicated above. […] One dose of LEV and two doses of Co.

[1] = Minimal motor impairment (rotarod); type: in vivo, mice; conditions: for # rotarod motor impairment/# tested: 0.5 h
Description: Acute MMI was assessed by a combination of direct observations of the animal for overt symptoms of the animal's neurological or muscular function. In mice, the rotarod procedure was used to disclose minimal muscular or neurological impairment. When a mouse is placed on a rod that rotates at a speed of 6 rpm, the animal can maintain its equilibrium for long periods of time. The animal was considered toxic if it fell off this rotating rod three times during a 1 min period.
In the determination of an ED50 or TD50 for each test compound, the first dose administered is usually the same dose as that used in a successful TPE determination.
If the initial dose employed was effective or toxic in more than 50% of animals, the next dose would be one-half that of the initial dose; if the initial dose was effective or toxic in less than 50% of animals, the following dose would be twice that of the initial dose. Third and fourth doses were selected to produce an evenly spaced dose response line. There should be a minimum of 4 points either including or lying between 0 and 100%.

[2] = test system: 6 Hz (44 mA) psychomotor seizures; test: 6 Hz psychomotor seizure test, 44 mA (alone, combination with LEV, isobolographic study); type: in vivo, mice; conditions: for ED50: at TPE, read-out: ED50 (95% CI) 44 mA
Description: Test compounds were administered using an optimal fluid volume to body fluid ratio. Test compounds were administered to mice in a volume of 0.01 mL/g of body weight (White H. S., et al., General Principles: Experimental selection, quantification, and evaluation of antiepileptic drugs, in Antiepileptic Drugs, Fourth Edition, […], and B. S. Meldrum, Editors. 1995, Raven Press, Ltd.: New York, pp. 99-110). For subcutaneous (s.c.) administration, the test compounds were administered into a loose fold of skin along the back of the animal except compound 6-b, which was administered orally (p.o). […] The animals were maintained on an adequate diet (Prolab RMH 3000) and allowed free access to food and water, except during the short time they were removed from their cage for testing. Animals newly received in the laboratory were allowed sufficient time to correct for possible food and water restriction incurred during transit before being employed in testing. All mice were housed in plastic cages in specially constructed rooms with controlled humidity, exchange of air and controlled lighting (12 hours on-12 hours off). The animals were housed, fed, and handled in a manner consistent with the recommendations in the National Council Publication, “Guide for the Care and Use of Laboratory Animals”. In the determination of an ED50 or TD50 for each test compound, the first dose administered is usually the same dose as that used in a successful TPE determination. […] Third and fourth doses were selected to produce an evenly spaced dose response line. […] The 6 Hz seizure test is used as a model of pharmacoresistant limbic seizures. […] Focal seizures were induced in mice via corneal stimulation (6 Hz, 0.2 msec rectangular pulse, 3 sec duration; Barton et al. 2001). Mice were tested at either 32 mA or 44 mA. […] The seizures that arise from corneal stimulation in this assay are characterized by a minimal clonic phase followed by stereotyped automatistic behaviors including stun, forelimb clonus, twitching of the vibrissae, and Straub-tail. Animals not displaying these behaviors were considered protected. […] In addition to recording the efficacy and toxicity data for these compounds alone or in combination, both plasma and brain samples were collected from each of the groups for pharmacokinetic/pharmacokinetic analysis. No pharmacokinetic interaction was observed based on compound levels in the plasma and brain samples (data not shown). Isobolographic studies were conducted for the combined administration of Co. […] Studies were conducted according to previously described methods (Madsen et al. 2011). Initial ED50 values were determined for both Co. […] Co. […] Doses used were proportional to calculated ED50 values. […] Experimental treatment doses (see Table 4) were based on theoretical values and adjusted according to observed effects. Experimentally determined ED50 (+SEM) values for each fixed dose-ratio combination were compared to the theoretical values (t-test) for statistical purposes. […] Subsequently, the experimental combined doses were determined for the same paradigms in the 6 Hz seizure test (Table 4 below).

[3] = test system: 6 Hz (32 mA) psychomotor seizures; test: 6 Hz psychomotor seizure test, 32 mA (incl. TPE determination); type: in vivo, mice; conditions: for # protected/# tested: 0.5 h; for ED50 (95% CI) 32 mA: s.c.; for ED50 (95% CI) 32 mA / ED50: at TPE; for ED50: Mus musculus, sc, read-out: ED50 (95% CI) 32 mA
Description: Test compounds were administered using an optimal fluid volume to body fluid ratio. Test compounds were administered to mice in a volume of 0.01 mL/g of body weight (White H. S., et al., General Principles: Experimental selection, quantification, and evaluation of antiepileptic drugs, in Antiepileptic Drugs, Fourth Edition, […], and B. S. Meldrum, Editors. 1995, Raven Press, Ltd.: New York, pp. 99-110). For subcutaneous (s.c.) administration, the test compounds were administered into a loose fold of skin along the back of the animal except compound 6-b, which was administered orally (p.o). […] The animals were maintained on an adequate diet (Prolab RMH 3000) and allowed free access to food and water, except during the short time they were removed from their cage for testing. Animals newly received in the laboratory were allowed sufficient time to correct for possible food and water restriction incurred during transit before being employed in testing. All mice were housed in plastic cages in specially constructed rooms with controlled humidity, exchange of air and controlled lighting (12 hours on-12 hours off). The animals were housed, fed, and handled in a manner consistent with the recommendations in the National Council Publication, “Guide for the Care and Use of Laboratory Animals”. In the determination of an ED50 or TD50 for each test compound, the first dose administered is usually the same dose as that used in a successful TPE determination. […] Third and fourth doses were selected to produce an evenly spaced dose response line. […] TPE was determined using the 6 Hz (32 mA) assay. […] The 6 Hz seizure test is used as a model of pharmacoresistant limbic seizures. […] Focal seizures were induced in mice via corneal stimulation (6 Hz, 0.2 msec rectangular pulse, 3 sec duration; Barton et al. 2001). Mice were tested at either 32 mA or 44 mA. […] The seizures that arise from corneal stimulation in this assay are characterized by a minimal clonic phase followed by stereotyped automatistic behaviors including stun, forelimb clonus, twitching of the vibrissae, and Straub-tail. Animals not displaying these behaviors were considered protected.

[4] = Plasma and brain levels (pK/pD analysis); type: in vivo, mice; conditions: for concentration at 0.25 h: mouse, subcutaneous
Description: In various tests, animals were sacrificed following testing, and trunk blood and/or brain tissue (whole brains) was collected for quantification of drug levels. Immediately after testing, animals were decapitated and trunk blood was collected into a BD Vacutainer® tube containing K2EDTA and chilled on ice until centrifugation. Following centrifugation (13000-18000 rpm, 5-7 min), the plasma was removed and transferred to a labeled microcentrifuge tube and stored at −80° C. For brain tissue collection, brains were removed immediately following decapitation and flash frozen. The frozen sample was placed in a labeled centrifuge tube and stored at −80° C.
In addition to recording the efficacy and toxicity data for these compounds alone or in combination, both plasma and brain samples were collected from each of the groups for pharmacokinetic/pharmacokinetic analysis.

human mGlu2 receptor = biological target: T1, human mGlu2 receptor (Homo sapiens, UniProt Q14416); test: [35S]GTPγS binding assay, mGluR2 PAM; type: biochemical; conditions: maximal % effect relative to control glutamate response; EC20 glutamate; read-out: GTPγS-hmGluR2 PAM Emax
T1 construct: expressed in transfected cells; host or cells: CHO cells

6 Hz seizures = conditions: dose-dependent manner; cited from earlier work
MES seizures = conditions: in vivo; cited from earlier work
[5] = Mus musculus, sc, compound alone
[6] = Co. No. 2 3 mg/kg combined with LEV 10 mg/kg, 6 Hz 44 mA

T1 sequence (Q14416 19-872): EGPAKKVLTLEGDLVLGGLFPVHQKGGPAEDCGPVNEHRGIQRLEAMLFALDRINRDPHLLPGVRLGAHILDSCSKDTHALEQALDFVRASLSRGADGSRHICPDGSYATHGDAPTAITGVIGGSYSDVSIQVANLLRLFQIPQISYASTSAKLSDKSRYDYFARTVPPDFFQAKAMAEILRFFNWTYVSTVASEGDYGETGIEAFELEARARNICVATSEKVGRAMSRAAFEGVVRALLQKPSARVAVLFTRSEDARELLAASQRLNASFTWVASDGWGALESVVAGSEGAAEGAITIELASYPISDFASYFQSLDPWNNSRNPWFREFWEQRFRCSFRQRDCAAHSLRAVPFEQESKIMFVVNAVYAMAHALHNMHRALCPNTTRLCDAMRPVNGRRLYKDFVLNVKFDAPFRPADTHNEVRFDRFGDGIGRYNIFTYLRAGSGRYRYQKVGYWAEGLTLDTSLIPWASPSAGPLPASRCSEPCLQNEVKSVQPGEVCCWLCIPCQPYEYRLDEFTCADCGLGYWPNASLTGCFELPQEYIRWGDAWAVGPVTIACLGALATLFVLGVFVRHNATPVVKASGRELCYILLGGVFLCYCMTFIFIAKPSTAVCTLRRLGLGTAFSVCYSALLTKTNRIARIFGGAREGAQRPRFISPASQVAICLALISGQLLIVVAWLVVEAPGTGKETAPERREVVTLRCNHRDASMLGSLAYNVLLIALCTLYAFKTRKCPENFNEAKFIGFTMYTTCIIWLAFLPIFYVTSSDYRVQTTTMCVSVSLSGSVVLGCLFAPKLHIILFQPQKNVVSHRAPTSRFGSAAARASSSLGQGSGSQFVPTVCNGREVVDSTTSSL

CCC[C@@H]1CC(=O)N([C@@H](CC)C(N)=O)C1 [Brivaracetam, (2S)-2-[(4R)-oxo-4-propyl-pyrrolidin-1-yl]butanamide]
effect on severity of dystonia (paroxysmal dystonia): reduce the severity of dystonia

CCCCn1ccc(N2CCC(c3ccccc3)CC2)c(Cl)c1=O [Co. No. 2-a]
Seizure score (dose) Corneal kindling (corneal kindled seizures; 100 mg/kg s.c.): 4.4
# rotarod motor impairment/# tested ([1]; 2.5 mg/kg s.c., 32 mA group): 1/8
# rotarod motor impairment/# tested ([1]; 5 mg/kg s.c., 32 mA group): 0/8
# rotarod motor impairment/# tested ([1]; 10 mg/kg s.c., 32 mA group): 0/8
# rotarod motor impairment/# tested ([1]; 10 mg/kg s.c., 44 mA group): 1/8 and 0/8
# rotarod motor impairment/# tested ([1]; 15 mg/kg s.c., 44 mA group): 1/8
# rotarod motor impairment/# tested ([1]; 20 mg/kg s.c., 32 mA group): 3/8
# rotarod motor impairment/# tested ([1]; 20 mg/kg s.c., 44 mA group): 0/8
# rotarod motor impairment/# tested ([1]; 40 mg/kg s.c., 32 mA group): 2/8
# rotarod motor impairment/# tested ([1]; 40 mg/kg s.c., 44 mA group): 4/8
TD50 at 0.5 h ([1]; mouse, in vivo, sc, rotarod): > 40 mg/kg
activity when administered alone ([2]; 10 mg/kg s.c.): ^aCo. No. 2-a (s.c.) 10 mg/kg tested in combination with LEV (i.p.); Co. No. 2-a 10 mg/kg, not active when administered alone; also recorded: ^bCo. No. 2-a (s.c.) 10 mg/kg tested in combination with LEV (i.p.); Co. No. 2-a 10 mg/kg, not active when administered alone
% protection 44 mA ([2]; 100 mg/kg s.c.): 50% protection at
responders at 10 mg/kg ([2]; Mus musculus, sc, 0.5 h, 10 mg/kg s.c., 0.5 h, read-out: # protected/# tested (converted)): 0%
responders at 15 mg/kg ([2]; Mus musculus, sc, 0.5 h, 15 mg/kg s.c., 0.5 h, read-out: # protected/# tested (converted)): 25%
responders at 20 mg/kg ([2]; Mus musculus, sc, 0.5 h, 20 mg/kg s.c., 0.5 h, read-out: # protected/# tested (converted)): 37.5%
responders at 40 mg/kg ([2]; Mus musculus, sc, 0.5 h, 40 mg/kg s.c., 0.5 h, read-out: # protected/# tested (converted)): 100%
ED50 [2, 5]: 21 mg/kg
# protected/# tested ([3]; 2.5 mg/kg s.c.): 0/8
# protected/# tested ([3]; 5 mg/kg s.c.): 0/8
# protected/# tested ([3]; 10 mg/kg s.c.): 4/8
# protected/# tested ([3]; 20 mg/kg s.c.): 6/8
# protected/# tested ([3]; 40 mg/kg s.c.): 8/8
ED50 (95% CI) 32 mA [3]: ED50 (95% CI): 12.2 mg/kg (8.4 to 17.4)

FC(F)(F)c1c(N2CCC(c3ccccc3)CC2)ccn2c(CC3CC3)nnc12 [Co. No. 2]
Seizure score (dose) Corneal kindling (corneal kindled seizures; 40 mg/kg s.c.): 3.4
Brain (ng/ml) Co. No. 2, individual mice [4, 6]: 1120 ng/mL and 1140 ng/mL and 1540 ng/mL and 1020 ng/mL
Plasma (ng/ml) Co. No. 2, individual mice [4, 6]: 4700 ng/ml and 467 ng/ml and AQL and (>500) ng/ml and 2080 ng/ml and 1830 ng/ml and 386 ng/ml
concentration at 0.25 h ([4]; brain, 3 mg/kg, Mean Brain Level (non-combination) Co. No. 2, Co. No. 2 3 mg/kg alone): 1110 ng/mL
concentration at 0.25 h ([4]; brain, Brain (ng/ml) Co. No. 2, individual mice, Co. No. 2 3 mg/kg combined with LEV 10 mg/kg, 6 Hz 44 mA): 1310 ng/mL
concentration at 0.25 h ([4]; brain, Mean Brain Level Co. No. 2, Co. No. 2 3 mg/kg combined with LEV 10 mg/kg): 1230 ng/mL
concentration at 0.25 h ([4]; plasma, 3 mg/kg, Mean Plasma Level (non-combination) Co. No. 2, Co. No. 2 3 mg/kg alone): 1300 ng/mL
concentration at 0.25 h ([4]; plasma, Mean Plasma Level Co. No. 2, Co. No. 2 3 mg/kg combined with LEV 10 mg/kg): 1890 ng/mL
responders at 3 mg/kg ([2]; Mus musculus, sc, 0.25 h, 3 mg/kg s.c., 0.25 h, read-out: # protected/# tested (converted)): 16.7%
ED50 [2, 5]: 5.89 mg/kg
Maximum Effect (% Protection) ([2]; compound alone): 100%
ED50 [3]: 3.83 mg/kg

FC(F)(F)Cc1nnc2c(Cl)c(N3CCC(F)(c4ccccc4)CC3)ccn12 [Co. No. 11]
Seizure score (dose) Corneal kindling (corneal kindled seizures; 100 mg/kg s.c.): 2.8
ED50 [2, 5]: 31.5 mg/kg
ED50 [3]: 4.77 mg/kg
ED50 (95% CI) 32 mA [3]: 9.41 (1.53-15.1) mg/kg
Emax (human mGlu2 receptor): 310%

N[C@@]1(C(=O)O)CO[C@H]2[C@H](C(=O)O)[C@H]21 [LY379268]
activity in the 6 Hz model (6 Hz seizures): effective
activity in maximal electroshock (MES) seizure test (MES seizures): ineffective

CC[C@@H](C(N)=O)N1C[C@H](C=C(F)F)CC1=O [Seletracetam, (2S)-2-[(4S)-4-(2,2,-difluorovinyl)-2-oxo-pyrrolidin-1-yl]butanamide]
effect on severity of dystonia (paroxysmal dystonia): reduce the severity of dystonia
